Structures are written as SMILES.

Three compounds from ChEMBL document CHEMBL1122907, “Synthesis of 1-[[2-hydroxy-1-(hydroxymethyl)ethoxy] methyl]-5-benzyluracil and its amino analogue, new potent uridine phosphorylase inhibitors with high water solubility” (J Med Chem, 1985) can be followed below.

The assay can be described thus: Binding affinity was determined against uridine phosphorylase in Sarcoma 180 cells. The assay is classed as cell-based.
Take `O=c1[nH]c(=O)n(COC(CO)CO)cc1Cc1ccccc1`: the Ki worked out at 98 nM.

Regarding `NCC(CO)OCn1cc(Cc2ccccc2)c(=O)[nH]c1=O` (stereo not drawn), the Ki turned out to be 20 nM.

Turning to `O=c1[nH]c(=O)n(COCCO)cc1Cc1ccccc1`, the affinity corresponds to a Ki of 98 nM.
